Experimental findings from ChEMBL document CHEMBL5465560, “Selectivity Literature for EUbOPEN Chemogenomic Library” (2024) are described below.

For assay [1], the target named is Glycogen synthase kinase-3 alpha (Homo sapiens, UniProt P49840). Description: Selectivity interaction (KinomeScan (DiscoverX)) EUB0001049a GSK3A. Particulars: at 1 µM.
In assay [2] the target is Serine/threonine-protein kinase MRCK beta (Homo sapiens) (UniProt Q9Y5S2). Description: Selectivity interaction (KinomeScan (DiscoverX)) EUB0000695a CDC42BPB. Particulars: at 100 nM.
Chain of Serine/threonine-protein kinase MRCK beta (Homo sapiens) (Q9Y5S2 whole entry): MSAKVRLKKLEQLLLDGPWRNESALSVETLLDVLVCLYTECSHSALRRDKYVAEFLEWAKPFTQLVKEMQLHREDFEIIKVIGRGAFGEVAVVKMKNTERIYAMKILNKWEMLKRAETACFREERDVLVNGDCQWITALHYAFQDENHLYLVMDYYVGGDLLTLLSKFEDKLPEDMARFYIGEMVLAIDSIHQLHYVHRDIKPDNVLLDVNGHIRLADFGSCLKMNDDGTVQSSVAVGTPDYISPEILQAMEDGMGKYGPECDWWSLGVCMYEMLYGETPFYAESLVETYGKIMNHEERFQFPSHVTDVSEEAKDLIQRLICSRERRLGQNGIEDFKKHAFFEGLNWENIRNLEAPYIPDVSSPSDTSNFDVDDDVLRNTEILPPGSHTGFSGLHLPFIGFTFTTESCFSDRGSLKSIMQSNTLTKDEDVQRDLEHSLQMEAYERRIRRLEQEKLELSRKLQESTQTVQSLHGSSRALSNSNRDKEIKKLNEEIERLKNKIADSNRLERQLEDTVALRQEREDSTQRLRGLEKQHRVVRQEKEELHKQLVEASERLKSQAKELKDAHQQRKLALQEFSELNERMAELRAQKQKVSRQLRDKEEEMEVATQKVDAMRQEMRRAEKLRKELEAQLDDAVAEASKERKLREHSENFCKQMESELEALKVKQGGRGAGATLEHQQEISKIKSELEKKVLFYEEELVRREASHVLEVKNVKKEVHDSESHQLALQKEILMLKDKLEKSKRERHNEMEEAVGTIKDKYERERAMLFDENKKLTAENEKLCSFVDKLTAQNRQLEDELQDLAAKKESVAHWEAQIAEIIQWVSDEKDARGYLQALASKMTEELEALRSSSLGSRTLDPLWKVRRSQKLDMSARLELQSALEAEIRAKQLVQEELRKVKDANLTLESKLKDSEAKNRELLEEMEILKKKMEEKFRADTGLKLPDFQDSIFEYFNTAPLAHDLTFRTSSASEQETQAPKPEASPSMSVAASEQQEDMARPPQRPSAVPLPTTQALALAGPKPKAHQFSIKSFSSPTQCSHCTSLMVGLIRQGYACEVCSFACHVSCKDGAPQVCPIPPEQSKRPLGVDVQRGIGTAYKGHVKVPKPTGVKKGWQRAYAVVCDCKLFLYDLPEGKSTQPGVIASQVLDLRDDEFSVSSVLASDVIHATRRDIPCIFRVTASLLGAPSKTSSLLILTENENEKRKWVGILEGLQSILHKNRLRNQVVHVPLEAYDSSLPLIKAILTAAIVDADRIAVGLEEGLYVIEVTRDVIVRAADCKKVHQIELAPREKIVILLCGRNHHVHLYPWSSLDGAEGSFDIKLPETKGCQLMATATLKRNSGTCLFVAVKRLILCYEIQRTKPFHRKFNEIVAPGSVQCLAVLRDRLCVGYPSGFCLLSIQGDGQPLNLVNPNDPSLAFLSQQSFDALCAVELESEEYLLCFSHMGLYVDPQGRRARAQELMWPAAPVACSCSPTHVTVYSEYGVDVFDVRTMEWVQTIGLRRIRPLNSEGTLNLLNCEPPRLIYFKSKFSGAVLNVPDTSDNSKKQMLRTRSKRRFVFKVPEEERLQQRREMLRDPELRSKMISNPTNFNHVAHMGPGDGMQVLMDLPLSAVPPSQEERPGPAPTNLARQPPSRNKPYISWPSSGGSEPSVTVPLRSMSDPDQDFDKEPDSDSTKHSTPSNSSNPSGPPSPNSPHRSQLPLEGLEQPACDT
For assay [3], the target named is T1, Inhibitor of nuclear factor kappa-B kinase subunit beta (Homo sapiens) (UniProt O14920).
T1 sequence (whole entry): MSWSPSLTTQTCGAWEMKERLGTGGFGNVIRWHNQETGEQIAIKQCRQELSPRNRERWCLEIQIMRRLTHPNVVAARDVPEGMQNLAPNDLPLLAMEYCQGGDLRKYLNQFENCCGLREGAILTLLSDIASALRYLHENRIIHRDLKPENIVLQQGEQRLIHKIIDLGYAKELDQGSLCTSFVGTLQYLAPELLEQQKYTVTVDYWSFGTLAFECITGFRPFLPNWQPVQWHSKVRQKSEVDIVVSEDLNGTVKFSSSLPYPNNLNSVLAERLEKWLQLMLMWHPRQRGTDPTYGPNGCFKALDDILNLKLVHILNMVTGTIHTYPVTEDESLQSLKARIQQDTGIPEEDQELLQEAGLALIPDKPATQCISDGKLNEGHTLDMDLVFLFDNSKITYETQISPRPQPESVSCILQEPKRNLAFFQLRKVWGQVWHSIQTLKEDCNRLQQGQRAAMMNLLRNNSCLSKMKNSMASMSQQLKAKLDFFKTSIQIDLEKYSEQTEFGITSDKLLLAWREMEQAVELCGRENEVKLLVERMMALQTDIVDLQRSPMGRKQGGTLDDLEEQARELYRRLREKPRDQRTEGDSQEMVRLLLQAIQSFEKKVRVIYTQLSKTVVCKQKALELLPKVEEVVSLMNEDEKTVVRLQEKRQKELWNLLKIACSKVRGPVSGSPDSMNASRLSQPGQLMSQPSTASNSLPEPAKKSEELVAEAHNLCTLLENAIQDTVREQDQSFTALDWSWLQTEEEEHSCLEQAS

For assay [4], the target named is Serine/threonine-protein kinase SBK1 (Homo sapiens) (UniProt Q52WX2). Nature of the assay: Selectivity interaction (KinomeScan (DiscoverX)) EUB0000666a SBK1. Particulars: at 10 µM.
Chain of Serine/threonine-protein kinase SBK1 (Homo sapiens) (Q52WX2 whole entry): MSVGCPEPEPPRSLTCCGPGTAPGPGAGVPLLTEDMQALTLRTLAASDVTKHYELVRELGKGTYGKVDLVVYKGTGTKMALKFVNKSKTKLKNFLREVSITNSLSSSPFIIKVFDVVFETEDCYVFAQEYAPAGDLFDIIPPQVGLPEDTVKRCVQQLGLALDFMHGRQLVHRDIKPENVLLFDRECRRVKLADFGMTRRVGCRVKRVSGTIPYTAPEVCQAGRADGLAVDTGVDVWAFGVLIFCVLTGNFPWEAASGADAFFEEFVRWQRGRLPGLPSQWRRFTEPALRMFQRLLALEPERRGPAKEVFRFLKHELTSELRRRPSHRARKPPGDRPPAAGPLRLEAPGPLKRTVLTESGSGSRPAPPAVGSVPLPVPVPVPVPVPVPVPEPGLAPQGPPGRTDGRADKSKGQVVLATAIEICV
For assay [5], the target named is Myosin light chain kinase, smooth muscle (Homo sapiens, UniProt Q15746). Nature of the assay: Selectivity interaction (LanthaScreen Eu Kinase Binding Assay) EUB0001632a MYLK. Particulars: at 10 µM. For orientation: TR-FRET usually uses a lanthanide donor and a delayed reading to cut background.
Assay [6] deals with Ephrin type-A receptor 5 (Homo sapiens) (UniProt P54756). Nature of the assay: Selectivity interaction (Kinase panel (Invitrogen)) EUB0000639a EPHA5. Particulars: at 200 nM.
For assay [7], the target named is T2, Protein kinase C epsilon type (Homo sapiens) (UniProt Q02156).
T2 sequence (whole entry): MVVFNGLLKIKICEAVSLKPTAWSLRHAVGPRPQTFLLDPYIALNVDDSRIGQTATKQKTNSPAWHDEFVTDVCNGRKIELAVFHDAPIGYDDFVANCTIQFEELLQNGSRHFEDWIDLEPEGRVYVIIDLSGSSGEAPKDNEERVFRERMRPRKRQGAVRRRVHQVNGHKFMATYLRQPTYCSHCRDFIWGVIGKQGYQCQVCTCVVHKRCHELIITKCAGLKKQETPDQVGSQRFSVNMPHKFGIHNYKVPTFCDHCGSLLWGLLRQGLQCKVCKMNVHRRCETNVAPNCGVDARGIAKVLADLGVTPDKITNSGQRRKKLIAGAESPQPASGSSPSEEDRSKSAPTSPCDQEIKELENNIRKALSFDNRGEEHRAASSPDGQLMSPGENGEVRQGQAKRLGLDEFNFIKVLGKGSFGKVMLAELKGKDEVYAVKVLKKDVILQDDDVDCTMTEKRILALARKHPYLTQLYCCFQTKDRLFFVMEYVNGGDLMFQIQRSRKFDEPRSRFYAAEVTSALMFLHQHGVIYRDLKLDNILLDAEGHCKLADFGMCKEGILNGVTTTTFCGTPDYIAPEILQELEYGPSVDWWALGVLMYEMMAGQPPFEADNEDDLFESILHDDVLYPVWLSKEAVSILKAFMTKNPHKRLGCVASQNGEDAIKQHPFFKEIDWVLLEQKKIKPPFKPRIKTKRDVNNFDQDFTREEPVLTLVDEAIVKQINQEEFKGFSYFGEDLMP
Nature of the assay: Selectivity interaction (Kinase panel (Invitrogen)) EUB0000639a PRKCE. Particulars: at 200 nM.

The next assay deals with Focal adhesion kinase 1 (Homo sapiens, UniProt Q05397). Nature of the assay: Selectivity interaction (KinomeScan (DiscoverX)) EUB0000229b PTK2. As to conditions: at 10 µM.
Chain of Focal adhesion kinase 1 (Q05397 2-1052 limits assumed): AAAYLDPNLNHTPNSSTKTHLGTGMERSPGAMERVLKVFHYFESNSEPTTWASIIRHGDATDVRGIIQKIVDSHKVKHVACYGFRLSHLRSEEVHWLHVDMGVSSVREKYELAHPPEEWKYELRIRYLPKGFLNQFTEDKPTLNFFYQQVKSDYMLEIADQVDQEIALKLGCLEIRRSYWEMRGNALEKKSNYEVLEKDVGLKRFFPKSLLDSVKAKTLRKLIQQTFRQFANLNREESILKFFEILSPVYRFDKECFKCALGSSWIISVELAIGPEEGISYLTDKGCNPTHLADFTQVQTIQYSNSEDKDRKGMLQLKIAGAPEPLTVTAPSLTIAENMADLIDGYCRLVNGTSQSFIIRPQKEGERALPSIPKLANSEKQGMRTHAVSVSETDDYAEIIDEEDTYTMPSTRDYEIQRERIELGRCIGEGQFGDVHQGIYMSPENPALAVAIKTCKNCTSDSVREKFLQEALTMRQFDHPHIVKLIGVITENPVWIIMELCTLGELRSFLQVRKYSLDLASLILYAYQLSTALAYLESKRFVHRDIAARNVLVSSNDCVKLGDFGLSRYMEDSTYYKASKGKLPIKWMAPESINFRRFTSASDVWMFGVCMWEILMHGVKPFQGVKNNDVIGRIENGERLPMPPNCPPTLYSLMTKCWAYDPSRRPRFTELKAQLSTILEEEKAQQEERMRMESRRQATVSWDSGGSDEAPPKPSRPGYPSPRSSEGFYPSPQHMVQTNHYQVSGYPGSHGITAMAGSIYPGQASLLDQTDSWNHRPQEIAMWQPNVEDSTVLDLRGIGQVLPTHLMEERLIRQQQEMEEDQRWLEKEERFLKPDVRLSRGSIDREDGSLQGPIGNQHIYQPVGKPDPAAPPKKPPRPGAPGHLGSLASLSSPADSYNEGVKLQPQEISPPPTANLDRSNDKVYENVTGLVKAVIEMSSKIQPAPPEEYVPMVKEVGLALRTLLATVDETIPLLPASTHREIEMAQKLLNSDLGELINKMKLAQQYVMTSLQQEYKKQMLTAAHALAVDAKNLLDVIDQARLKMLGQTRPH
Assay [8] has as its target Protein-tyrosine kinase 6 (Homo sapiens, UniProt Q13882). Description: Selectivity interaction (KinomeScan (DiscoverX)) EUB0000229b PTK6. As to conditions: at 10 µM.
Assay [9] deals with Serine/threonine-protein kinase PAK 1 (Homo sapiens) (UniProt Q13153). Nature of the assay: Selectivity interaction (KinomeScan (DiscoverX)) EUB0000229b PAK1. Particulars: at 10 µM.
Chain of Serine/threonine-protein kinase PAK 1 (Homo sapiens) (Q13153 whole entry): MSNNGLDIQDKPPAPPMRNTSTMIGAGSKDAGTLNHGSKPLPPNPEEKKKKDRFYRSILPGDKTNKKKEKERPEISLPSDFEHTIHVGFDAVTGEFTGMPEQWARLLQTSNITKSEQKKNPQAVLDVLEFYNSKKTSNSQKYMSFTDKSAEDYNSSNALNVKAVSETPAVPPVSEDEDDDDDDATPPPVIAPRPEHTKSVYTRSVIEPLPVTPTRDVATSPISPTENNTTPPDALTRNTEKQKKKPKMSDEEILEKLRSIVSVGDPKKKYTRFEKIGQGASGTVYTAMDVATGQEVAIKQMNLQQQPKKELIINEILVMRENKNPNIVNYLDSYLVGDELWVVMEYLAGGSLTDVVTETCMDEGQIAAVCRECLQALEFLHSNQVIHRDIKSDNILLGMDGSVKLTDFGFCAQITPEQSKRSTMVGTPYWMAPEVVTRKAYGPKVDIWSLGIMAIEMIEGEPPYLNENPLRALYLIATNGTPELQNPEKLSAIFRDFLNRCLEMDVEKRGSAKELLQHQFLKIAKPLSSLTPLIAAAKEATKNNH
In assay [10] the target is Calcium/calmodulin-dependent protein kinase type 1G (Homo sapiens) (UniProt Q96NX5). Particulars: at 10 µM.
Assay [11] deals with Myosin-IIIa (Homo sapiens) (UniProt Q8NEV4). Description: Selectivity interaction (KinomeScan (DiscoverX)) EUB0001619a MYO3A. Particulars: at 1 µM.
The target in assay [12] is Angiopoietin-1 receptor (Homo sapiens) (UniProt Q02763). Nature of the assay: Selectivity interaction (Kinase panel (literature)) EUB0001199aCl TEK. Particulars: at 1 µM.

Structures are written as SMILES.

Chain of Glycogen synthase kinase-3 alpha (P49840 2-483 limits assumed): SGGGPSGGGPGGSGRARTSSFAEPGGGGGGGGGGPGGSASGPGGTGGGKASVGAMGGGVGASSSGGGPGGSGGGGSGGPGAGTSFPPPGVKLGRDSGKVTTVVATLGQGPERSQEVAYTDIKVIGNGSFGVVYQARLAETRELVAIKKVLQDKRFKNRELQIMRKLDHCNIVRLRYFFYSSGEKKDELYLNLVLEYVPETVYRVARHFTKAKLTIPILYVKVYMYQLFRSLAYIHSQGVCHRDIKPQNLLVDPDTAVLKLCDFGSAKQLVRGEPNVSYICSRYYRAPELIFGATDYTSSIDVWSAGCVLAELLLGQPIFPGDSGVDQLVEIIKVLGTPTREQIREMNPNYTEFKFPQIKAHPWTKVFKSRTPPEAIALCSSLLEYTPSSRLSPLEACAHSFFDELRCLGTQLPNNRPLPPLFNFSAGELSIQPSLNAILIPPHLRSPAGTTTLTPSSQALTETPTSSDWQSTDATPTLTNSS
Chain of Protein-tyrosine kinase 6 (Q13882 whole entry, looked up): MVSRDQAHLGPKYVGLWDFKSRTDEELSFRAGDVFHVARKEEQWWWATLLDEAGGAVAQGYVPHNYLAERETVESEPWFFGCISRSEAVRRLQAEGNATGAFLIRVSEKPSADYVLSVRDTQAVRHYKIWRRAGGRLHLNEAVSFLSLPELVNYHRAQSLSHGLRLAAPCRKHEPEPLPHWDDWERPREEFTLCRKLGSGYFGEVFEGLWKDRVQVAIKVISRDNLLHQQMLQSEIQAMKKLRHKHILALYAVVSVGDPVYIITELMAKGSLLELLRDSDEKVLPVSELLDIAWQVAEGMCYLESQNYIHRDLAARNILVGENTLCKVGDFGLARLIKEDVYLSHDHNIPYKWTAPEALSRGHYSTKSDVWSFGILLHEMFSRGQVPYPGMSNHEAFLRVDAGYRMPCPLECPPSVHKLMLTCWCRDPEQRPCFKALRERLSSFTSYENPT

Molecule `COc1cc(Nc2nc(C)cc(-c3cnn4nc(OC)ccc34)n2)cc(C(F)(F)F)c1` gave a % of control in assay [1] of 100%.

In assay [2], `Cc1cc(F)c(C(=O)Nc2cccc(-c3nncn3C(C)C)n2)cc1-n1cnc(C2CC2)c1` displayed a % of control of 100%.

As to `Cc1cnc(Nc2ccc(F)cc2Cl)nc1-c1c[nH]c(C(=O)N[C@H](CO)c2cccc(Cl)c2)c1`, the % of inhibition in [3] came to 8%.

`O=C(NOC[C@H](O)CO)c1ccc(F)c(F)c1Nc1ccc(I)cc1F` returned a % of control in [4] of 100%.

Consider `Cn1cc(-n2cnc3c(NCc4nc5cc(Cl)c(Cl)cc5[nH]4)nc(N4CCOCC4)nc32)cn1`, for which the % of inhibition in assay [5] was -17.4%.

Regarding `CC[C@@H]1[C@H](F)C(=O)N[C@@H]1COc1nccc2cc(C(N)=O)c(OC)cc12` [ZIMLOVISERTIB], the % of inhibition was -0.246% in assay [6] and -12.5% in assay [7].

Take `COc1cc(N(C)c2ccnc3ccc(C(F)(F)F)cc23)cc(OC)c1OC`: the % binding was determined as 100% at Focal adhesion kinase 1, 94% in [8] and 89% in assay [9].

Consider `COCC(=O)NC/C=C/c1ccc2ncnc(Nc3ccc(Oc4ccc(C)nc4)c(C)c3)c2c1` [CP-724714], for which the % of control in assay [10] amounted to 96%.

Molecule `N#Cc1cccc(-c2c[nH]c3ncnc(N4CCOCC4)c23)c1` had a % of control in [11] of 94%.

`CN1Cc2nccc(-c3cn(C)nc3-c3ccc(F)cc3)c2C1=O`: in assay [12], the % of inhibition worked out at 1%.
